Consider three compounds from US9522197B2, “Nanoparticles comprising a cyclodextrin and a biologically active molecule and uses thereof” (INNOUP FARMA, S.L., priority 2007, dated 2016).

The data set is described as follows: Quantification of cyclodextrin associated with the nanoparticles (HPLC-ELSD). It is filed as physicochemical. To be noted: PVM/MA 100 mg, cyclodextrin 25 mg, incubation 30 min; n=12. On the procedure:
The analysis was conducted in a 1100 series LC model chromatograph (Agilent, Waldbornn, Germany) and the data was analyzed in a Hewlett-Packard computer by means of the Chem-Station G2171 program (Agueros et al., J. Pharm. and Biomed. Anal., 39 (2005) 495-502).
For the sample analysis, the supernatants obtained after the purification process of the nanoparticles were diluted up to 10 ml with purified water. After adding the internal standard (PEG 6000), 1 ml aliquots of supernatant were taken as a sample. The samples were analyzed using a Zorbax Eclipse XDB-Phenyl column (Agilent 150 mm×2.1 mm) and a mixture of water/acetonitrile in a gradient (see Table 1) as a mobile phase at a flow of 0.25 ml/min.
The conditions of the detector (ELSD) were optimized until achieving the maximum sensitivity according to the gradient used in the mobile phase (Nebulizer Temperature: 115° C.; Nitrogen Flow: 3.2 ml/min). The chromatographic separation of the different cyclodextrins, of PVM/MA and of the internal standard (PEG 6000) was carried out in less than 15 minutes. The retention times were:
In the case of the quantification of aminated cyclodextrin [e.g. 6-monodeoxy-6-monoamino-β-cyclodextrin (NH-β-CD)] associated to the nanoparticles, a variant of the above described method was used to prevent the overlapping of the peaks of the cyclodextrin and the polymer. Therefore, the samples were analyzed using an NH2-Zorbax column (Agilent 4.6×150 mm, 5 μm), heated to 40° C. and a mixture of methanol/water (80/20 v/v) as a mobile phase at a flow of 1 ml/min. The conditions of the detector (ELSD) were the following: Nebulizer Temperature: 71° C. and Nitrogen Flow: 1.9 ml/min. The chromatographic separation of 6-monodeoxy-6-monoamino-β-cyclodextrin was carried out in less than 7 minutes. The retention time was 3.8±0.07 minutes.
Finally, the amount of cyclodextrin (CD) associated to the nanoparticles was calculated as the difference between the amount of CD initially added and the amount of CD quantified in the supernatants.

In the case of `NC[C@H]1O[C@@H]2O[C@H]3[C@H](O)[C@@H](O)[C@@H](O[C@H]4[C@H](O)[C@@H](O)[C@@H](O[C@H]5[C@H](O)[C@@H](O)[C@@H](O[C@H]6[C@H](O)[C@@H](O)[C@@H](O[C@H]7[C@H](O)[C@@H](O)[C@@H](O[C@H]8[C@H](O)[C@@H](O)[C@@H](O[C@H]1[C@H](O)[C@H]2O)O[C@@H]8CO)O[C@@H]7CO)O[C@@H]6CO)O[C@@H]5CO)O[C@@H]4CO)O[C@@H]3CO` [NH-β-CD, 6-monodeoxy-6-monoamino-β-cyclodextrin], the “Associated CD” value is about 70 µg/mg.

In the case of “2-hydroxypropyl-β-cyclodextrin [OH-β-CD]”, the “Associated CD” value is about 70 µg/mg.

Regarding `OC[C@H]1O[C@@H]2O[C@H]3[C@H](O)[C@@H](O)[C@@H](O[C@H]4[C@H](O)[C@@H](O)[C@@H](O[C@H]5[C@H](O)[C@@H](O)[C@@H](O[C@H]6[C@H](O)[C@@H](O)[C@@H](O[C@H]7[C@H](O)[C@@H](O)[C@@H](O[C@H]8[C@H](O)[C@@H](O)[C@@H](O[C@H]1[C@H](O)[C@H]2O)O[C@@H]8CO)O[C@@H]7CO)O[C@@H]6CO)O[C@@H]5CO)O[C@@H]4CO)O[C@@H]3CO` [β-CD, β-cyclodextrin], the “Associated CD” value was “about 90 μg/mg”.
